Experimental data as given in the NIST ThermoML archive (doi:10.1021/je0256028).
± gives the expanded uncertainty stated by the source.

Columns and labels:
[1] = xn = mol fraction of the nth substance listed; settings: 298.15 K, Pendant drop shape
[2] = 298.15 K; for mass density: 101.33 kPa, Vibrating tube method; for surface tension liquid-gas: Pendant drop shape

`CC(C)(C)O` [2-methylpropan-2-ol] + Cc1ccc(C)cc1 gave a surface tension liquid-gas ([1]; x1 = 1) of 19.97 ± 0.3 mN/m.
`Cc1cccc(C)c1` [1,3-dimethylbenzene] + CC(C)(C)O gave a surface tension liquid-gas ([1]; x2 = 0) of 28.36 ± 0.39 mN/m, a surface tension liquid-gas ([1]; x2 = 0.1028) of 26.83 ± 0.37 mN/m and a surface tension liquid-gas ([1]; x2 = 0.201) of 25.76 ± 0.36 mN/m. The surface tension liquid-gas ([1]; x2 = 0.3006) was 24.84 ± 0.35 mN/m, the surface tension liquid-gas ([1]; x2 = 0.4009) was 23.98 ± 0.34 mN/m and the surface tension liquid-gas ([1]; x2 = 0.4999) was 23.21 ± 0.33 mN/m. For the same compound, the surface tension liquid-gas ([1]; x2 = 0.5994) was 22.52 ± 0.33 mN/m, the surface tension liquid-gas ([1]; x2 = 0.6984) was 21.84 ± 0.32 mN/m and the surface tension liquid-gas ([1]; x2 = 0.7981) was 21.22 ± 0.31 mN/m. For the same compound, the surface tension liquid-gas ([1]; x2 = 0.895) was 20.64 ± 0.31 mN/m.
With `CC(C)O` [propan-2-ol] + Cc1ccc(C)cc1 the surface tension liquid-gas ([1]; x1 = 1) was 20.93 ± 0.31 mN/m.
In the case of `Cc1cccc(C)c1` [1,3-dimethylbenzene] + CC(C)O, the surface tension liquid-gas ([1]; x2 = 0) is reported as 28.36 ± 0.39 mN/m, the surface tension liquid-gas ([1]; x2 = 0.1019) is reported as 27.15 ± 0.38 mN/m and the surface tension liquid-gas ([1]; x2 = 0.1933) is reported as 26.23 ± 0.37 mN/m. For the same compound, the surface tension liquid-gas ([1]; x2 = 0.2999) was 25.4 ± 0.36 mN/m, the surface tension liquid-gas ([1]; x2 = 0.4024) was 24.76 ± 0.35 mN/m and the surface tension liquid-gas ([1]; x2 = 0.4983) was 24.18 ± 0.34 mN/m. It also gave a surface tension liquid-gas ([1]; x2 = 0.5957) of 23.56 ± 0.34 mN/m, a surface tension liquid-gas ([1]; x2 = 0.7013) of 22.87 ± 0.33 mN/m and a surface tension liquid-gas ([1]; x2 = 0.7952) of 22.26 ± 0.32 mN/m. It also gave a surface tension liquid-gas ([1]; x2 = 0.8987) of 21.58 ± 0.32 mN/m.
`Cc1ccccc1C` [1,2-dimethylbenzene] gave a mass density ([2]; Liquid) of 875.92 ± 0.11 kg/m3 and a surface tension liquid-gas ([2]; Liquid) of 29.6 ± 0.4 mN/m.
For `Cc1ccccc1C` [1,2-dimethylbenzene] + CC(C)(C)O, the surface tension liquid-gas ([1]; x2 = 0) was 29.6 ± 0.4 mN/m, the surface tension liquid-gas ([1]; x2 = 0.1083) was 27.8 ± 0.38 mN/m and the surface tension liquid-gas ([1]; x2 = 0.1992) was 26.43 ± 0.36 mN/m. It also gave a surface tension liquid-gas ([1]; x2 = 0.3042) of 25.27 ± 0.35 mN/m, a surface tension liquid-gas ([1]; x2 = 0.402) of 24.32 ± 0.34 mN/m and a surface tension liquid-gas ([1]; x2 = 0.5007) of 23.6 ± 0.34 mN/m. The surface tension liquid-gas ([1]; x2 = 0.5988) was 22.82 ± 0.33 mN/m, the surface tension liquid-gas ([1]; x2 = 0.6992) was 22.05 ± 0.32 mN/m and the surface tension liquid-gas ([1]; x2 = 0.8) was 21.38 ± 0.31 mN/m. For the same compound, the surface tension liquid-gas ([1]; x2 = 0.8991) was 20.71 ± 0.31 mN/m.
Work on `Cc1ccc(C)cc1` [1,4-dimethylbenzene] + CC(C)O yielded a surface tension liquid-gas ([1]; x2 = 0) of 27.89 ± 0.38 mN/m, a surface tension liquid-gas ([1]; x2 = 0.1029) of 26.82 ± 0.37 mN/m and a surface tension liquid-gas ([1]; x2 = 0.2014) of 26.03 ± 0.36 mN/m. It also gave a surface tension liquid-gas ([1]; x2 = 0.2993) of 25.32 ± 0.35 mN/m, a surface tension liquid-gas ([1]; x2 = 0.403) of 24.63 ± 0.35 mN/m and a surface tension liquid-gas ([1]; x2 = 0.4979) of 24.06 ± 0.34 mN/m. The surface tension liquid-gas ([1]; x2 = 0.5985) was 23.45 ± 0.33 mN/m, the surface tension liquid-gas ([1]; x2 = 0.6991) was 22.86 ± 0.33 mN/m and the surface tension liquid-gas ([1]; x2 = 0.7982) was 22.22 ± 0.32 mN/m. For the same compound, the surface tension liquid-gas ([1]; x2 = 0.9047) was 21.52 ± 0.32 mN/m.
`Cc1ccccc1C` [1,2-dimethylbenzene] + CC(C)O gave a surface tension liquid-gas ([1]; x2 = 0) of 29.6 ± 0.4 mN/m, a surface tension liquid-gas ([1]; x2 = 0.0992) of 28.21 ± 0.38 mN/m and a surface tension liquid-gas ([1]; x2 = 0.1988) of 27.11 ± 0.37 mN/m. The surface tension liquid-gas ([1]; x2 = 0.3024) was 26.07 ± 0.36 mN/m, the surface tension liquid-gas ([1]; x2 = 0.4004) was 25.3 ± 0.35 mN/m and the surface tension liquid-gas ([1]; x2 = 0.4979) was 24.54 ± 0.35 mN/m. The surface tension liquid-gas ([1]; x2 = 0.5971) was 23.98 ± 0.34 mN/m, the surface tension liquid-gas ([1]; x2 = 0.6988) was 23.15 ± 0.33 mN/m and the surface tension liquid-gas ([1]; x2 = 0.8) was 22.4 ± 0.32 mN/m. For the same compound, the surface tension liquid-gas ([1]; x2 = 0.8896) was 21.72 ± 0.32 mN/m.
Work on `Cc1ccc(C)cc1` [1,4-dimethylbenzene] + CC(C)(C)O yielded a surface tension liquid-gas ([1]; x2 = 0) of 27.89 ± 0.38 mN/m, a surface tension liquid-gas ([1]; x2 = 0.1004) of 26.69 ± 0.37 mN/m and a surface tension liquid-gas ([1]; x2 = 0.2113) of 25.63 ± 0.36 mN/m. For the same compound, the surface tension liquid-gas ([1]; x2 = 0.3049) was 24.73 ± 0.35 mN/m, the surface tension liquid-gas ([1]; x2 = 0.4065) was 23.9 ± 0.34 mN/m and the surface tension liquid-gas ([1]; x2 = 0.498) was 23.25 ± 0.33 mN/m. It also gave a surface tension liquid-gas ([1]; x2 = 0.6012) of 22.5 ± 0.33 mN/m, a surface tension liquid-gas ([1]; x2 = 0.698) of 21.82 ± 0.32 mN/m and a surface tension liquid-gas ([1]; x2 = 0.8007) of 21.15 ± 0.31 mN/m. The surface tension liquid-gas ([1]; x2 = 0.9002) was 20.58 ± 0.31 mN/m.
In the case of `CC(C)(C)O` [2-methylpropan-2-ol], the mass density ([2]; Liquid) is reported as 780.27 ± 0.16 kg/m3 and the surface tension liquid-gas ([2]; Metastable liquid) is reported as 19.97 ± 0.3 mN/m.
`CC(C)O` [propan-2-ol] showed a mass density ([2]; Liquid) of 780.85 ± 0.16 kg/m3 and a surface tension liquid-gas ([2]; Liquid) of 20.93 ± 0.31 mN/m.
`CC(C)O` [propan-2-ol] + Cc1ccccc1C showed a surface tension liquid-gas ([1]; x1 = 1) of 20.93 ± 0.31 mN/m.
For `CC(C)O` [propan-2-ol] + Cc1cccc(C)c1, the surface tension liquid-gas ([1]; x1 = 1) was 20.93 ± 0.31 mN/m.
Compound `CC(C)(C)O` [2-methylpropan-2-ol] + Cc1ccccc1C has a surface tension liquid-gas ([1]; x1 = 1) of 19.97 ± 0.3 mN/m.
`Cc1cccc(C)c1` [1,3-dimethylbenzene] showed a mass density ([2]; Liquid) of 859.79 ± 0.16 kg/m3 and a surface tension liquid-gas ([2]; Liquid) of 28.36 ± 0.39 mN/m.
Work on `CC(C)(C)O` [2-methylpropan-2-ol] + Cc1cccc(C)c1 yielded a surface tension liquid-gas ([1]; x1 = 1) of 19.97 ± 0.3 mN/m.
For `Cc1ccc(C)cc1` [1,4-dimethylbenzene], the mass density ([2]; Liquid) was 856.85 ± 0.12 kg/m3 and the surface tension liquid-gas ([2]; Liquid) was 27.89 ± 0.38 mN/m.
